Patent US4617314A, “Benzofuran- and benzopyran-carboxamide derivatives” (priority 1983, dated 1986)

Columns and labels:
[1] = tested on: hypermotility of mice induced by apomorphine; experiment: Anti-apomorphine Action (mice): suppression of spontaneous motility; type: in vivo, mice (male dd-strain); conditions: 60 min before 0.5 mg/kg apomorphine hydrochloride, 50% suppression of spontaneous motility; for Anti-apomorphine Action ED50, Mice, Motility: p.o.; for ED50: Mus musculus, po
Source text: (§1) Dopamine antagonism was observed by the antagonism to
(1) hypermotility of mice, and
(§2) induced by the administration of apomorphine to the animals which drug acts on dopamine. The response of (1) is considered to be due to the action of dopamine on the mesolimbic system whereas the response of (2) is regarded mainly as the action of dopamine on the extrapyramidal system. As a consequence, a drug having high selectivity to the antagonism to the response of (1) is deemed to be more useful with less extrapyramidal side effects.
Groups of 5 male dd-strain mice were used. Test compounds were orally administered and 60 minutes thereafter, 0.5 mg/kg of apomorphine hydrochloride was intracutaneously administered. Immediately thereafter, spontaneous motility of the mice was measured with the aid of Animex (manufactured by Columbus Company, U.S.A.) for 20 minutes. The procedure was repeated three times with respective groups. The dose of test compounds required for 50% suppression of spontaneous motility of control group was graphically intraporated and determined as ED50 value.

[2] = tested on: rats administered with methamphetamine; experiment: Methamphetamine Potentiation Action (lethality increasing effect); type: in vivo, rats (male Wistar); conditions: 8 rats/group, methamphetamine hydrochloride 5 mg/kg i.p.
Description: Activation effect was construed as lethality increasing effect of a test drug on rats which were administered with methamphetamine at a non-lethal dose every week. Accordingly, it is considered that the greater is the number of rats which died at a lower dose in an earlier week, the activation activity is the higher.
Groups of 8 male Wistar rats weighing above […] were used. Test compounds are intraperitoneally administered and 15 minutes thereafter, 5 mg/kg of methamphetamine hydrochloride was intraperitoneally administered. Number of dead rats within one week was counted. In the 2nd to 4th week, experiment was likewise repeated at one week intervals by the administration of test compounds and methamphetamine hydrochloride.

[3] = tested on: stereotyped behavior of rats induced by apomorphine; experiment: Anti-apomorphine Action (rats): suppression of gnawing (stereotyped) behavior; type: in vivo, rats (female Wistar); conditions: Rattus norvegicus, po, 60 min before 1.25 mg/kg i.v. apomorphine hydrochloride; 50% suppression of gnawing behavior; probit
Source text: as §1
(2) stereotyped behavior of rats
as §2
Groups of 7 female Wistar rats were used. Test compounds were orally administered, 60 minutes thereafter, apomorphine hydrochloride was intravenously administered at a dosage of 1.25 mg/kg. After 5 minutes and 20 minutes, respectively, whether gnawing behavior (stereotyped behavior) appears or not during the period of 5 minutes was observed. The dose of test compounds required for 50% suppression of the appearance was evaluated as ED50 value by probit method.

Compound: CCN1CCCC1CNC(=O)c1cc(S(N)(=O)=O)cc2c1OC(C)C2 (single isomer, unassigned) [B, N-(1-ethyl-2-pyrrolidinylmethyl)-2-methyl-5-sulfamoyl-2,3-dihydrobenzofuran-7-carboxamide]
- Anti-apomorphine Action ED50, Mice, Motility [1]: 23 mg/kg

Compound: CCN1CCCC1CNC(=O)c1cc(S(N)(=O)=O)cc2c1OC(C)C2 (single isomer, unassigned) [C, N-(1-ethyl-2-pyrrolidinylmethyl)-2-methyl-5-sulfamoyl-2,3-dihydrobenzofuran-7-carboxamide]
- Anti-apomorphine Action ED50, Mice, Motility [1]: 85 mg/kg

Compound: CCN1CCCC1CNC(=O)c1cc(S(N)(=O)=O)cc2c1OC(C)C2 (centres unmarked) [A, N-(1-ethyl-2-pyrrolidinylmethyl)-2-methyl-5-sulfamoyl-2,3-dihydrobenzofuran-7-carboxamide]
- Methamphetamine Potentiation Action, Number of Dead Animal, Total Number ([2]; 1st Week, 5 mg/kg): 1
- Methamphetamine Potentiation Action, Number of Dead Animal, Total Number ([2]; 1st Week, 10 mg/kg): 0
- Methamphetamine Potentiation Action, Number of Dead Animal, Total Number ([2]; 1st Week, 20 mg/kg): 2
- Methamphetamine Potentiation Action, Number of Dead Animal, Total Number ([2]; 2nd Week, 5 mg/kg): 1
- Methamphetamine Potentiation Action, Number of Dead Animal, Total Number ([2]; 2nd Week, 10 mg/kg): 3
- Methamphetamine Potentiation Action, Number of Dead Animal, Total Number ([2]; 2nd Week, 20 mg/kg): 5
- Methamphetamine Potentiation Action, Number of Dead Animal, Total Number ([2]; 3rd Week, 5 mg/kg): 1
- Methamphetamine Potentiation Action, Number of Dead Animal, Total Number ([2]; 3rd Week, 10 mg/kg): 4
- Methamphetamine Potentiation Action, Number of Dead Animal, Total Number ([2]; 3rd Week, 20 mg/kg): 5
- Methamphetamine Potentiation Action, Number of Dead Animal, Total Number ([2]; 4th Week, 5 mg/kg): 1
- Methamphetamine Potentiation Action, Number of Dead Animal, Total Number ([2]; 4th Week, 10 mg/kg): 4
- Methamphetamine Potentiation Action, Number of Dead Animal, Total Number ([2]; 4th Week, 20 mg/kg): 7
- ED50 [3]: > 100 mg/kg
- ED50 [1]: 80 mg/kg

Compound: CC1Cc2cc(S(N)(=O)=O)cc(C(=O)NC3CCN(Cc4ccccc4)C3)c2O1 (centres unmarked) [Compound E, N-(1-benzyl-3-pyrrolidinyl)-2-methyl-5-sulfamoyl-2,3-dihydrobenzofuran-7-carboxamide]
- ED50 [3]: > 100 mg/kg
- ED50 [1]: 100 mg/kg

Compound: CCCCN1CCCC1CNC(=O)c1cc(S(N)(=O)=O)cc2c1OC(C)C2 (centres unmarked) [Compound I, N-(1-butyl-2-pyrrolidinylmethyl)-2-methyl-5-sulfamoyl-2,3-dihydrobenzofuran-7-carboxamide]
- ED50 [3]: > 100 mg/kg
- ED50 [1]: 30 mg/kg

Compound: CC1Cc2cc(S(N)(=O)=O)cc(C(=O)NCC3CCCN3Cc3ccccc3)c2O1 (centres unmarked) [D, N-(1-benzyl-2-pyrrolidinylmethyl)-2-methyl-5-sulfamoyl-2,3-dihydrobenzofuran-7-carboxamide]
- ED50 [3]: 21 mg/kg
- ED50 [1]: 6 mg/kg

Compound: NS(=O)(=O)c1cc2c(c(C(=O)NCC3CCCN3Cc3ccccc3)c1)OCC2 (centres unmarked) [F, N-(1-benzyl-2-pyrrolidinylmethyl)-5-sulfamoyl-2,3-dihydrobenzofuran-7-carboxamide]
- Methamphetamine Potentiation Action, Number of Dead Animal, Total Number ([2]; 1st Week, 10 mg/kg): 0
- Methamphetamine Potentiation Action, Number of Dead Animal, Total Number ([2]; 1st Week, 25 mg/kg): 0
- Methamphetamine Potentiation Action, Number of Dead Animal, Total Number ([2]; 1st Week, 50 mg/kg): 0
- Methamphetamine Potentiation Action, Number of Dead Animal, Total Number ([2]; 2nd Week, 10 mg/kg): 0
- Methamphetamine Potentiation Action, Number of Dead Animal, Total Number ([2]; 2nd Week, 25 mg/kg): 0
- Methamphetamine Potentiation Action, Number of Dead Animal, Total Number ([2]; 2nd Week, 50 mg/kg): 2
- Methamphetamine Potentiation Action, Number of Dead Animal, Total Number ([2]; 3rd Week, 10 mg/kg): 0
- Methamphetamine Potentiation Action, Number of Dead Animal, Total Number ([2]; 3rd Week, 25 mg/kg): 1
- Methamphetamine Potentiation Action, Number of Dead Animal, Total Number ([2]; 3rd Week, 50 mg/kg): 3
- Methamphetamine Potentiation Action, Number of Dead Animal, Total Number ([2]; 4th Week, 10 mg/kg): 1
- Methamphetamine Potentiation Action, Number of Dead Animal, Total Number ([2]; 4th Week, 25 mg/kg): 2
- Methamphetamine Potentiation Action, Number of Dead Animal, Total Number ([2]; 4th Week, 50 mg/kg): 6
- ED50 [3]: > 100 mg/kg
- ED50 [1]: 17 mg/kg

Compound: CC(C)CN1CCCC1CNC(=O)c1cc(S(N)(=O)=O)cc2c1OCC2 (centres unmarked) [G, N-(1-isobutyl-2-pyrrolidinylmethyl)-5-sulfamoyl-2,3-dihydrobenzofuran-7-carboxamide]
- ED50 [3]: > 100 mg/kg
- ED50 [1]: 35 mg/kg

Compound: CC(C)CN1CCCC1CNC(=O)c1cc(S(N)(=O)=O)cc2c1OC(C)C2 (centres unmarked) [H, N-(1-isobutyl-2-pyrrolidinylmethyl)-2-methyl-5-sulfamoyl-2,3-dihydrobenzofuran-7-carboxamide]
- Methamphetamine Potentiation Action, Number of Dead Animal, Total Number ([2]; 1st Week, 20 mg/kg): 0
- Methamphetamine Potentiation Action, Number of Dead Animal, Total Number ([2]; 1st Week, 40 mg/kg): 2
- Methamphetamine Potentiation Action, Number of Dead Animal, Total Number ([2]; 2nd Week, 20 mg/kg): 6
- Methamphetamine Potentiation Action, Number of Dead Animal, Total Number ([2]; 2nd Week, 40 mg/kg): 4
- Methamphetamine Potentiation Action, Number of Dead Animal, Total Number ([2]; 3rd Week, 20 mg/kg): 6
- Methamphetamine Potentiation Action, Number of Dead Animal, Total Number ([2]; 3rd Week, 40 mg/kg): 7
- Methamphetamine Potentiation Action, Number of Dead Animal, Total Number ([2]; 4th Week, 20 mg/kg): 7
- Methamphetamine Potentiation Action, Number of Dead Animal, Total Number ([2]; 4th Week, 40 mg/kg): 7
- ED50 [3]: 60 mg/kg
- ED50 [1]: 19 mg/kg

Compound: CCN1CCCC1CNC(=O)c1cc(S(=O)(=O)NC)cc2c1OC(C)C2.Cl (centres unmarked) [J, N-(1-ethyl-2-pyrrolidinylmethyl)-2-methyl-5-methylsulfamoyl-2,3-dihydrobenzofuran-7-carboxamide hydrochloride]
- ED50 [3]: > 100 mg/kg
- ED50 [1]: 10 mg/kg

Compound: CCN1CCCC1CNC(=O)c1cc(SC)cc2c1OC(C)C2.Cl (centres unmarked) [K, N-(1-ethyl-2-pyrrolidinylmethyl)-2-methyl-5-methylthio-2,3-dihydrobenzofuran-7-carboxamide hydrochloride]
- ED50 [3]: 0.2 mg/kg
- ED50 [1]: 0.65 mg/kg

Compound: CCN1CCCC1CNC(=O)c1cc(S(N)(=O)=O)cc2c1OCC2.O (centres unmarked) [L, N-(1-ethyl-2-pyrrolidinylmethyl)-5-sulfamoyl-2,3-dihydrobenzofuran-7-carboxamide monohydrate]
- Methamphetamine Potentiation Action, Number of Dead Animal, Total Number ([2]; 1st Week, 25 mg/kg): 3
- Methamphetamine Potentiation Action, Number of Dead Animal, Total Number ([2]; 2nd Week, 25 mg/kg): 3
- Methamphetamine Potentiation Action, Number of Dead Animal, Total Number ([2]; 3rd Week, 25 mg/kg): 7
- Methamphetamine Potentiation Action, Number of Dead Animal, Total Number ([2]; 4th Week, 25 mg/kg): 8
